Tests used:
recombinant human ENTPD3 = recombinant human ENTPD3 (Homo sapiens (Human), UniProt O75355); assay: Recombinant human ENTPD3 malachite green assay; assay type: biochemical
Method: (§1) Using Compound 9, the activity of cell surface CD39 was assessed using K562 cells expressing human CD39 and Kinase-Glo. Activity of recombinant human ENTPD2 and ENTPD3 was assessed using a malachite green assay. […] Compound 9 was screened in the Eurofins Safety Screen Panel and the Eurofins Express Diversity Kinase Profile Panel. In the Safety Panel, 1/87 targets were inhibited at >50% at 10 μM of Compound 9. The PDE3 enzyme was inhibited at 59%.

Human CD8+ T cells = assay: Proliferation of human CD8+ T cells, CellTrace CFSE flow cytometry; assay type: cell-based; details: 100 μM, 4 days
Method: Viability of EG7 and A375 cells treated with 100 μM Compound 9 was measured using CellTiter-Glo after 3 days. Proliferation of human CD8+ T cells was measured by flow cytometry after 4 days of treatment with 100 μM Compound 9 using CellTrace CFSE Cell Proliferation Kit.

PDE3 enzyme = assay: Eurofins Safety Screen Panel: PDE3; assay type: biochemical; details: 10 μM
Method: as §1

CT26 cells = assay: CT26 subcutaneous tumor model in Balb/c mice, tumor volume; assay type: in vivo, mouse; details: 100 mg/kg orally BID from day one post implant
Method: (§2) Compounds of the invention show potent anti-tumor effects, evidenced in reducing tumor volume in a mouse model. In one model, EG7 cells were implanted subcutaneously into C57BL/6 mice. Compound 9 or vehicle was orally administered BID starting day one post implant (N=10 per group). […] In another model, EG7 cells were implanted subcutaneously into C57BL/6 mice. Compound 9 was orally administered BID (100 mg/kg) starting day one post implant (N=10 per group). Vehicle was orally administered BID starting day one post implant (N=20) until day five post implant, at which time, mice were randomized by tumor volume into two groups. Compound 9 (100 mg/kg) or vehicle was orally administered BID to N=10 per group starting day six post implant. […] FIGS. 13B-D show individual replications of this measurement for each dosing. FIG. 13B is vehicle. FIG. 13C is dosing of Compound 9 started on day 1. FIG. 13D is Compound 9 started on day 6. In another model, CT26 cells were implanted subcutaneously into Balb/c mice. 100 mg/kg Compound 9 or vehicle was orally administered BID starting day one post implant (N=10 per group).

human CD39 = human CD39 (Homo sapiens (Human), UniProt P49961); assay: Cell surface CD39 activity, K562 cells expressing human CD39, Kinase-Glo; assay type: cell-based
Chain of human CD39 (P49961 whole entry): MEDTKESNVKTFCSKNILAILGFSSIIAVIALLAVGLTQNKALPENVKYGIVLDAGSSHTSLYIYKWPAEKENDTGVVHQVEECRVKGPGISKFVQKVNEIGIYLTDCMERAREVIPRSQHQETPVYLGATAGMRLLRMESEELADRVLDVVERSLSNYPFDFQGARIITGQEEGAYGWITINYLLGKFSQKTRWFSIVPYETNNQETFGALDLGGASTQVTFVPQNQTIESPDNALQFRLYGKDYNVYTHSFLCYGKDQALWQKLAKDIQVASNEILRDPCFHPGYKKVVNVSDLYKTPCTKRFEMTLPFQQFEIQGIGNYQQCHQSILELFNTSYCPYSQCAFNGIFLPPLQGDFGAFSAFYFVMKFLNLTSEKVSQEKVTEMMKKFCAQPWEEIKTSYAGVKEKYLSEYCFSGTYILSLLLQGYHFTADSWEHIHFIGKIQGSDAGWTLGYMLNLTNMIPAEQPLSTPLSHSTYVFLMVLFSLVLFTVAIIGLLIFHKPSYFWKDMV
Method: as §1

recombinant CD73 [1] = molecular target: T1, recombinant CD73 (Homo sapiens (Human), UniProt P21589); assay: Potency against recombinant CD73, malachite green assay; assay type: biochemical
Method: The potency of Compound 9 was evaluated against recombinant CD73 and CD73-expressing SK-MEL-28 cells using a malachite green assay. Inhibition of CD73 in plasma was measured using LC/MS to assess conversion of ^15N5-AMP into ^15N5-ADO. FIG. 4A indicates the nanomolar inhibition of CD73 cells from both human and mouse sources. […] Inhibition of CD73 in plasma was measured using LC/MS to assess conversion of ^15N5-AMP into ^15N5-ADO.
Target sequence in this assay (P21589 27-574): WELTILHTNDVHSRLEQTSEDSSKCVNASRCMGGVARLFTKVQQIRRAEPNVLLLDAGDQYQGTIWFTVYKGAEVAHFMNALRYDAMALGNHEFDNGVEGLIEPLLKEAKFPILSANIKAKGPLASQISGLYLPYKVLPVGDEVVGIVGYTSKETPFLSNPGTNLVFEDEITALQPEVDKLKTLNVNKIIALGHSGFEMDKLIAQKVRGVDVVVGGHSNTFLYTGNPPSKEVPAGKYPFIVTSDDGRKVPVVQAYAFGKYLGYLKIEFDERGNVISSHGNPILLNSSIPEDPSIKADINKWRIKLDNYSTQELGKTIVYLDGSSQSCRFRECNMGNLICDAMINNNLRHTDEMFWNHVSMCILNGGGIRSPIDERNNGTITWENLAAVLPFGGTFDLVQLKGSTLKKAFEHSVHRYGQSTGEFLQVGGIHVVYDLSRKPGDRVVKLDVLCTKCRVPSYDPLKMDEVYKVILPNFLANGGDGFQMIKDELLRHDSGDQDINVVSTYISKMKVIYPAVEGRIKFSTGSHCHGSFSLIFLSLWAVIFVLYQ

recombinant CD73 [2] = molecular target: T1, recombinant CD73; assay: Assay 2: Inhibition of the CD73 enzyme in vitro (0.05 nM CD73, 1 hour 37° C., Malachite Green); assay type: biochemical; details: 0.05 nM CD73, 50 μM AMP, 1 hour at 37° C.
In short: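 Free phosphate was quantified from absorbance at 630 nm against a phosphate standard curve. This was read 5 min after Malachite Green was added at room temperature. Beforehand, the recombinant soluble enzyme reacted for 1 hour at 37° C.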
Target sequence in this assay (P21589 27-547): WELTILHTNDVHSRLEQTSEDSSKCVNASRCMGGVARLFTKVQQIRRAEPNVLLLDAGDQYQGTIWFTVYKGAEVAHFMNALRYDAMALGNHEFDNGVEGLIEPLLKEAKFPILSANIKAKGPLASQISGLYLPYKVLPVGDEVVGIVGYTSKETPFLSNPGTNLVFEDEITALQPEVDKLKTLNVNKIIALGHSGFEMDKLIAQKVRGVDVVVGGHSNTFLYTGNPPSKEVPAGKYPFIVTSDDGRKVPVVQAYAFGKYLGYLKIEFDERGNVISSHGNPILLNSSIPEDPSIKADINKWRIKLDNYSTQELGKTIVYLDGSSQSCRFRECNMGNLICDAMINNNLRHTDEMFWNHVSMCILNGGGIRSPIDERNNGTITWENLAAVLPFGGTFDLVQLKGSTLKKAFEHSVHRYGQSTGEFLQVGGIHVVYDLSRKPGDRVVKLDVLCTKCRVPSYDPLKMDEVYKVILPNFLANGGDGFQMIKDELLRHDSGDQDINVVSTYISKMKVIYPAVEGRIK

recombinant human ENTPD2 = recombinant human ENTPD2 (Homo sapiens (Human), UniProt Q9Y5L3); assay: Recombinant human ENTPD2 malachite green assay; assay type: biochemical
Chain of recombinant human ENTPD2 (Q9Y5L3 whole entry): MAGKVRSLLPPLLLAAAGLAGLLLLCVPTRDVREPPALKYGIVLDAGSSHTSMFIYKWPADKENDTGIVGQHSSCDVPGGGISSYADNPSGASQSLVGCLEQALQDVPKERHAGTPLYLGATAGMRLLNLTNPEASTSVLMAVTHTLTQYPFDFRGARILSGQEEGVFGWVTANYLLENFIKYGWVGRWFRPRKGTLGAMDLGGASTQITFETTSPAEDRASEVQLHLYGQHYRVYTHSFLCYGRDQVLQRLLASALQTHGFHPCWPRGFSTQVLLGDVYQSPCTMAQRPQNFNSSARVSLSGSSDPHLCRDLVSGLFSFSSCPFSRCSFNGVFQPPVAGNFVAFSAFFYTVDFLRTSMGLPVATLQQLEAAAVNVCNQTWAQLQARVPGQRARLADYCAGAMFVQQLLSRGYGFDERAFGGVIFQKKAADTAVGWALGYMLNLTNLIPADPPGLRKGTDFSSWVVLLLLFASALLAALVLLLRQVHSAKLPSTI
Method: as §1

EG7 cells = assay: EG7 subcutaneous tumor model in C57BL/6 mice, tumor volume; assay type: in vivo, mouse
Method: EG7 cells were implanted subcutaneously into C57BL/6 mice. Compound 9 (50 mg/kg) or vehicle was orally administered BID starting day one post implant (N=10 per group). Tumors were excised on day 14 and analyzed by flow cytometry. Compound 9 increased the % CD8+ cells of CD45+ cells as shown in FIG. 1A (* indicates p<0.05). EG7 cells were implanted subcutaneously into C57BL/6 mice. Anti-CD8 antibody was dosed i.p. on days −1, 0, 5, and 10. Compound 9 (50 mg/kg) or vehicle was orally dosed BID starting on day 1.
as §2
EG7 cells were implanted subcutaneously into C57BL/6 mice for each experiment. Anti-PD-L1 antibody (5 mg/kg) was dosed i.p. on Study Days 3, 5, 7, 9, 11, 13. Compound 9 (100 mg/kg) or vehicle was orally administered BID starting one day post implant. […] FIGS. 7B-7E show the individual replications of this measurement for each dosing. FIG. 7B is vehicle, FIG. 7C is anti-PD-L1 antibody, FIG. 7D is Compound 9, and FIG. 7E is Compound 9+ Anti-PD-L1.
Oxaliplatin was dosed i.p. 6 mg/kg on Study Days 7 and 14. Compound 9 (100 mg/kg) or vehicle was orally administered BID starting one day post implant. […] FIGS. 8B-8E show the individual replications of this measurement for each dosing. FIG. 8B is vehicle, FIG. 8C is oxaliplatin, FIG. 8D is Compound 9, and FIG. 8E is Compound 9+oxaliplatin.
Doxorubicin was dosed i.v. 2.5 mg/kg on Study Days 7 and 14. Compound 9 (50 mg/kg) or vehicle was orally administered BID starting one day post implant. […] FIGS. 9B-9E show the individual replications of this measurement for each dosing. FIG. 9B is vehicle, FIG. 9C is doxorubicin, FIG. 9D is Compound 9, and FIG. 9E is Compound 9+doxorubicin.
Docetaxel was dosed i.p. 5 mg/kg on Study Days 5, 12, and 19. Compound 9 (100 mg/kg) or vehicle was orally administered BID starting one day post implant. […] show the individual replications of this measurement for each dosing. FIG. 12B is vehicle, FIG. 12C is docetaxel, FIG. 12D is Compound 9, and FIG. 12E is Compound 9+docetaxel.

Chain of recombinant human ENTPD3 (O75355 whole entry): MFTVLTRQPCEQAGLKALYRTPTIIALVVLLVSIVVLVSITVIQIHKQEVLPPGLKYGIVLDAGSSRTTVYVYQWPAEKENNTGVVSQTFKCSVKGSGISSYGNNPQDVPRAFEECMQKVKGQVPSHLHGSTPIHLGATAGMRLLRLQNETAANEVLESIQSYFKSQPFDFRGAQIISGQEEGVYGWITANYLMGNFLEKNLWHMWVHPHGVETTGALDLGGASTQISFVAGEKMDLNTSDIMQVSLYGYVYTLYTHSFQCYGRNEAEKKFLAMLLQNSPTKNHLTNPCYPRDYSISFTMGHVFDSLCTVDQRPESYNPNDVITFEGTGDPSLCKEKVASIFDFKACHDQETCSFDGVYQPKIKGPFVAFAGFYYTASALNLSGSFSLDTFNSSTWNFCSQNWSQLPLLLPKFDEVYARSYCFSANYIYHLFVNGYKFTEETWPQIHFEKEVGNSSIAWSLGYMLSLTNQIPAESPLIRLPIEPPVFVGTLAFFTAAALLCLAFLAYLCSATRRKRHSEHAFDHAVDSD

C#C[C@@]1(O)[C@@H](COC(Cc2ccc(N3CCCNC3=O)cc2)(C(=O)O)C(=O)O)O[C@@H](n2cnc3c(N)nc(Cl)nc32)[C@@H]1O [Compound 9, 2-(((2R,3S,4R,5R)-5-(6-amino-2-chloro-9H-purin-9-yl)-3-ethynyl-3,4-dihydroxytetrahydrofuran-2-yl)methoxy)-2-(4-(2-oxotetrahydropyrimidin-1 (2H)-yl)benzyl)malonic acid]
IC50 (recombinant human ENTPD3): > 10000 nM | % divided cells of human CD8+ T cells (Human CD8+ T cells): comparable % divided cells | PDE3 enzyme inhibition (PDE3 enzyme): 59% | tumor volume, CT26 (CT26 cells): decrease in tumor volume compared to vehicle | IC50 (human CD39): > 10000 nM | IC50 (recombinant CD73 [1]): 0.17 nM | IC50 (recombinant CD73 [2]): 0.17 nM | IC50 (recombinant human ENTPD2): > 10000 nM | tumor volume reduction, with or without CD8+ T cell depletion (EG7 cells; 50 mg/kg orally BID from day 1, anti-CD8 antibody i.p. days -1, 0, 5, 10): more of a tumor volume reduction | tumor volume, established EG7 tumors (EG7 cells; 100 mg/kg orally BID starting day six post implant): decrease in tumor volume | tumor volume, EG7, single agent and combination with doxorubicin (EG7 cells; Compound 9 50 mg/kg orally BID, doxorubicin i.v. 2.5 mg/kg days 7 and 14): reduction in tumor volume | tumor volume, EG7, single agent and combination with anti-PD-L1 antibody (EG7 cells; Compound 9 100 mg/kg orally BID, anti-PD-L1 5 mg/kg i.p. days 3, 5, 7, 9, 11, 13): reduction in tumor volume | tumor volume, EG7, single agent and combination with docetaxel (EG7 cells; Compound 9 100 mg/kg orally BID, docetaxel i.p. 5 mg/kg days 5, 12, 19): reduction in tumor volume | tumor volume, EG7, single agent and combination with oxaliplatin (EG7 cells; Compound 9 100 mg/kg orally BID, oxaliplatin i.p. 6 mg/kg days 7 and 14): reduction in tumor volume | tumor volume, EG7, dose response (EG7 cells; orally BID from day one post implant, increasing doses): further decrease in tumor volume with increasing doses
